In patent publication US12264159B2, “Functionalized heterocycles as antiviral agents” (Enanta Pharmaceuticals, Inc., priority 2018, dated 2025):

What was measured:
HBV in 2.2.15 cells = experiment: 2.2.15 cells: viral product in cell lysates quantified via quantitative real time PCR; format: cell-based, hepatitis B virus (HBV); settings: Hepatitis B virus, 120 h, day 5 post treatment, 50% reduction of viral product vs no drug controls, readout (qPCR, HBsAg or HBeAg) not specified for the column
In short: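 HBV product was measured at day 5 by lysate qPCR or by supernatant HBsAg/HBeAg ELISA, in 2.2.15 cells seeded at 35,000/well and exposed to 5-fold compound dilution series (0.5% DMSO). EC50 is 50% reduction of viral product relative to untreated controls.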

[1] = Compound induced cellular toxicity in HepG2 cells, ATPlite 1Step; format: cell-based; settings: human, three days exposure, 50% reduction of total ATP vs no drug controls
Method: At day 3, post seeding cells are treated with ATPlite 1Step according to the manufacturer's instructions.

Structure (SMILES) | EC50 (HBV in 2.2.15 cells) | CC50 at 3 days [1]
CC(C)[C@@H]1Cn2nc(C3CC3)c(-c3ccoc3)c2-c2cc(=O)c(C(=O)O)cn21 [Example 132, (R)-2-cyclopropyl-1-(furan-3-yl)-6-isopropyl-10-oxo-5,6-dihydro-10H-pyrazolo[1,5-a]pyrido[2,1-c]pyrazine-9-carboxylic acid] | < 0.1 µM | > 25 µM
COc1cc(-c2cc3n(n2)C[C@@H](C(C)(C)C)n2cc(C(=O)O)c(=O)cc2-3)c(OC)nn1 [Example 16, (R)-6-(tert-butyl)-2-(3,6-dimethoxypyridazin-4-yl)-10-oxo-5,6-dihydro-10H-pyrazolo[1,5-a]pyrido[2,2-c]pyrazine-12-carboxylic acid] | < 0.1 µM | > 25 µM
CC(C)(C)[C@@H]1Cn2nc(-c3ccccc3F)c(-c3ccccc3F)c2-c2cc(=O)c(C(=O)O)cn21 [Example 95, (R)-6-(tert-butyl)-1,2-bis(2-fluorophenyl)-10-oxo-5,6-dihydro-10H-pyrazolo[1,5-a]pyrido[2,1-c]pyrazine-9-carboxylic acid] | < 0.1 µM | > 25 µM
CCOc1c(F)cccc1-c1cc2n(n1)C[C@@H](C(C)(C)C)n1cc(C(=O)O)c(=O)cc1-2 [Example 71, (R)-6-(tert-butyl)-2-(2-ethoxy-3-fluorophenyl)-10-oxo-5,6-dihydro-10H-pyrazolo[1,5-a]pyrido[2,2-c]pyrazine-12-carboxylic acid] | < 0.1 µM | > 25 µM
CC(C)(C)[C@@H]1Cn2nc(-c3cccc4nsnc34)cc2-c2cc(=O)c(C(=O)O)cn21 [Example 63, (R)-2-(benzo[c][1,2,5]thiadiazol-4-yl)-6-(tert-butyl)-10-oxo-5,6-dihydro-10H-pyrazolo[1,5-a]pyrido[2,2-c]pyrazine-12-carboxylic acid] | < 0.1 µM | > 25 µM
CC(C)(C)[C@@H]1Cn2nc(-c3ccc(F)cc3)c(-c3ccc(F)cc3)c2-c2cc(=O)c(-c3ncn[nH]3)cn21 [Example 194, (R)-6-(tert-butyl)-1,2-bis(4-fluorophenyl)-9-(1H-1,2,4-triazol-5-yl)-5,6-dihydro-10H-pyrazolo[1,5-a]pyrido[2,1-c]pyrazin-10-one] | < 0.1 µM | 10 to 25 µM
C[C@@H]1Cn2nc(-c3ccccc3F)c(-c3ccccc3F)c2-c2cc(=O)c(C(=O)O)cn21 [Example 206, (R)-1,2-bis(2-fluorophenyl)-6-methyl-10-oxo-5,6-dihydro-10H-pyrazolo[1,5-a]pyrido[2,1-c]pyrazine-9-carboxylic acid] | < 0.1 µM | 10 to 25 µM
CC(C)(C)[C@@H]1Cn2nc(C3CC3)c(-c3ccco3)c2-c2cc(=O)c(C(=O)O)cn21 [Example 159, (R)-6-(tert-butyl)-2-cyclopropyl-1-(furan-2-yl)-10-oxo-5,6-dihydro-10H-pyrazolo[1,5-a]pyrido[2,1-c]pyrazine-9-carboxylic acid] | < 0.1 µM | > 25 µM
CC(C)(C)[C@@H]1Cn2nc(C3CC3)c(-c3cccs3)c2-c2cc(=O)c(C(=O)O)cn21 [Example 156, (R)-6-(tert-butyl)-2-cyclopropyl-10-oxo-1-(thiophen-2-yl)-5,6-dihydro-10H-pyrazolo[1,5-a]pyrido[2,1-c]pyrazine-9-carboxylic acid] | < 0.1 µM | > 25 µM
CC(C)(C)[C@@H]1Cn2nc(-c3cccc4c3OCO4)cc2-c2cc(=O)c(C(=O)O)cn21 [Example 26, (R)-2-(benzo[d][1,3]dioxol-4-yl)-6-(tert-butyl)-10-oxo-5,6-dihydro-10H-pyrazolo[1,5-a]pyrido[2,2-c]pyrazine-12-carboxylic acid] | < 0.1 µM | > 25 µM
CC(C)[C@@H]1Cn2nc(-c3ccc(O)cc3)c(-c3ccc(O)cc3)c2-c2c(F)c(=O)c(C(=O)O)cn21 [Example 191, (R)-11-fluoro-1,2-bis(4-hydroxyphenyl)-6-isopropyl-10-oxo-5,6-dihydro-10H-pyrazolo[1,5-a]pyrido[2,1-c]pyrazine-9-carboxylic acid] | < 0.1 µM | > 25 µM
CCOc1ccccc1-c1nc2n(n1)C[C@@H](C(C)(C)C)n1cc(C(=O)O)c(=O)cc1-2 [Example 86, (R)-6-(tert-butyl)-2-(2-ethoxyphenyl)-10-oxo-5,6-dihydro-10H-pyrido[1,2-a][1,2,4]triazolo[5,2-c]pyrazine-12-carboxylic acid] | < 0.1 µM | > 25 µM
CC(C)(C)[C@@H]1Cn2nc(-c3cccc(OC(F)(F)F)c3)cc2-c2cc(=O)c(C(=O)O)cn21 [Example 17, (R)-6-(tert-butyl)-10-oxo-2-(3-(trifluoromethoxy)phenyl)-5,6-dihydro-10H-pyrazolo[1,5-a]pyrido[2,2-c]pyrazine-12-carboxylic acid] | < 0.1 µM | > 25 µM
COc1ccccc1-c1cc2n(n1)C[C@@H](C(C)(C)C)n1cc(C(=O)O)c(=O)cc1-2 [Example 12] | < 0.1 µM | > 25 µM
CC(C)(C)[C@@H]1Cn2nc(-c3cccc(F)c3F)cc2-c2cc(=O)c(C(=O)O)cn21 [Example 30, (R)-6-(tert-butyl)-2-(2,3-difluorophenyl)-10-oxo-5,6-dihydro-10H-pyrazolo[1,5-a]pyrido[2,2-c]pyrazine-12-carboxylic acid] | < 0.1 µM | > 25 µM
CC(C)(C)[C@@H]1Cn2ncc(-c3ccc(F)cc3)c2-c2cc(=O)c(C(=O)O)cn21 [Example 101, (R)-6-(tert-butyl)-1-(4-fluorophenyl)-10-oxo-5,6-dihydro-10H-pyrazolo[1,5-a]pyrido[2,1-c]pyrazine-9-carboxylic acid] | < 0.1 µM | > 25 µM
Cc1ncc(-c2cc3n(n2)C[C@@H](C(C)(C)C)n2cc(C(=O)O)c(=O)cc2-3)s1 [Example 19, (R)-6-(tert-butyl)-2-(2-methylthiazol-5-yl)-10-oxo-5,6-dihydro-10H-pyrazolo[1,5-a]pyrido[2,2-c]pyrazine-12-carboxylic acid] | < 0.1 µM | > 25 µM
C[C@@H]1Cn2nc(-c3ccc(F)cc3)c(-c3ccc(F)cc3)c2-c2cc(=O)c(C(=O)O)cn21 [Example 204, (R)-1,2-bis(4-fluorophenyl)-6-methyl-10-oxo-5,6-dihydro-10H-pyrazolo[1,5-a]pyrido[2,1-c]pyrazine-9-carboxylic acid] | < 0.1 µM | > 25 µM
CC(C)(C)[C@@H]1Cn2nc(-c3cc(F)c(F)cc3N)cc2-c2cc(=O)c(C(=O)O)cn21 [Example 64, (R)-2-(2-amino-4,5-difluorophenyl)-6-(tert-butyl)-10-oxo-5,6-dihydro-10H-pyrazolo[1,5-a]pyrido[2,2-c]pyrazine-12-carboxylic acid] | < 0.1 µM | > 25 µM
CC(C)(C)[C@@H]1Cn2nc(-c3c(F)cccc3F)cc2-c2cc(=O)c(C(=O)O)cn21 [Example 29, (R)-6-(tert-butyl)-2-(2,6-difluorophenyl)-10-oxo-5,6-dihydro-10H-pyrazolo[1,5-a]pyrido[2,2-c]pyrazine-12-carboxylic acid] | < 0.1 µM | > 25 µM
CC(C)[C@@H]1Cn2nc(-c3ccccc3)c(-c3ccccc3)c2-c2cc(=O)c(-c3ncn[nH]3)cn21 [Example 192, (R)-6-isopropyl-1,2-diphenyl-9-(1H-1,2,4-triazol-5-yl)-5,6-dihydro-10H-pyrazolo[1,5-a]pyrido[2,1-c]pyrazin-10-one] | < 0.1 µM | > 25 µM
CC(C)[C@@H]1Cn2nc(C3CC3)c(-c3ccsc3)c2-c2cc(=O)c(C(=O)O)cn21 [Example 128, (R)-2-cyclopropyl-6-isopropyl-10-oxo-1-(thiophen-3-yl)-5,6-dihydro-10H-pyrazolo[1,5-a]pyrido[2,1-c]pyrazine-9-carboxylic acid] | < 0.1 µM | > 25 µM
CC(C)[C@@H]1Cn2nc(C3CC3)c(-c3ccco3)c2-c2cc(=O)c(C(=O)O)cn21 [Example 136, (R)-2-cyclopropyl-1-(furan-2-yl)-6-isopropyl-10-oxo-5,6-dihydro-10H-pyrazolo[1,5-a]pyrido[2,1-c]pyrazine-9-carboxylic acid] | < 0.1 µM | > 25 µM
Cc1cccc(F)c1-c1cc2n(n1)C[C@@H](C(C)(C)C)n1cc(C(=O)O)c(=O)cc1-2 [Example 51, (R)-6-(tert-butyl)-2-(2-fluoro-6-methylphenyl)-10-oxo-5,6-dihydro-10H-pyrazolo[1,5-a]pyrido[2,2-c]pyrazine-12-carboxylic acid] | 0.2 to 1 µM | > 25 µM
CC(C)(C)[C@@H]1Cn2nc(-c3cccc4scnc34)cc2-c2cc(=O)c(C(=O)O)cn21 [Example 31, (R)-2-(benzo[d]thiazol-4-yl)-6-(tert-butyl)-10-oxo-5,6-dihydro-10H-pyrazolo[1,5-a]pyrido[2,2-c]pyrazine-12-carboxylic acid] | < 0.1 µM | > 25 µM
CC(C)(C)[C@@H]1Cn2nc(-c3ccccc3CO)cc2-c2cc(=O)c(C(=O)O)cn21 [Example 84, (R)-6-(tert-butyl)-2-(2-(hydroxymethyl)phenyl)-10-oxo-5,6-dihydro-10H-pyrazolo[1,5-a]pyrido[2,2-c]pyrazine-12-carboxylic acid] | 0.2 to 1 µM | > 25 µM
Cc1sccc1-c1c(C2CC2)nn2c1-c1cc(=O)c(C(=O)O)cn1[C@H](C(C)(C)C)C2 [Example 160, (R)-6-(tert-butyl)-2-cyclopropyl-1-(2-methylthiophen-3-yl)-10-oxo-5,6-dihydro-10H-pyrazolo[1,5-a]pyrido[2,1-c]pyrazine-9-carboxylic acid] | < 0.1 µM | > 25 µM
